Where a SMILES comes first, the peptide text is derived from it. [ ]: non-standard residue; d: D form. Met(O) = CS(=O)CC[C@H](N)C(=O)O; pS = N[C@@H](COP(=O)(O)O)C(=O)O
Tests used:
MRL/lpr mice [1] = experiment: Survival analysis in MRL/lpr lupus mice; assay type: in vivo, mouse; details: female MRL/lpr mice, intravenous, from 5 weeks of age; NaCl control = 25 weeks
Protocol: (§1) Statistical tests were performed using GraphPad Prism version 5.0. The two-way ANOVA test was used to analyze statistical significance of proteinuria differences between control and peptide-treated groups of mice. Survival of control and P140 analogue-treated female MRL/lpr mice was analyzed by the Kaplan-Meier method, and the significance of differences was determined by the log-rank test. For the other variables, statistical significance was assessed using the Student's t-test. p values less than 0.05 were considered significant.
It has been determined that this mouse strain carries a mutation in the fas gene. Also, the MRL/lpr is a useful model to study behavioural and cognitive deficits found in autoimmune diseases and the efficacy of immunosuppressive agents [Monneaux et al., 2003, Eur. J. Immunol. 33,287-296].
Five-week-old female MRL/lpr mice received P140 or peptide P140(MO) intravenously as described (Monneaux et al., 2003, Eur. J. Immunol. 33,287-296). All experimental protocols were carried out with the approval of the local Institutional Animal Care and Use Committee (CREMEAS). As control, mice were injected with NaCl.
Twenty mice were used for each peptide or NaCl.

HSC70 protein = target: T1, HSC70 protein (Bos taurus, UniProt P19120); experiment: BIAcore binding of peptides to immobilized HSC70; parameters: species or system bovine; details: for Rmax / KA / Kd / kd: 25° C., 1:1 Langmuir model; for Rmax: global fit; for KA / Kd / kd: same value given at each analyte concentration
T1 construct: purchased Stressgen
T1 sequence (P19120 whole entry): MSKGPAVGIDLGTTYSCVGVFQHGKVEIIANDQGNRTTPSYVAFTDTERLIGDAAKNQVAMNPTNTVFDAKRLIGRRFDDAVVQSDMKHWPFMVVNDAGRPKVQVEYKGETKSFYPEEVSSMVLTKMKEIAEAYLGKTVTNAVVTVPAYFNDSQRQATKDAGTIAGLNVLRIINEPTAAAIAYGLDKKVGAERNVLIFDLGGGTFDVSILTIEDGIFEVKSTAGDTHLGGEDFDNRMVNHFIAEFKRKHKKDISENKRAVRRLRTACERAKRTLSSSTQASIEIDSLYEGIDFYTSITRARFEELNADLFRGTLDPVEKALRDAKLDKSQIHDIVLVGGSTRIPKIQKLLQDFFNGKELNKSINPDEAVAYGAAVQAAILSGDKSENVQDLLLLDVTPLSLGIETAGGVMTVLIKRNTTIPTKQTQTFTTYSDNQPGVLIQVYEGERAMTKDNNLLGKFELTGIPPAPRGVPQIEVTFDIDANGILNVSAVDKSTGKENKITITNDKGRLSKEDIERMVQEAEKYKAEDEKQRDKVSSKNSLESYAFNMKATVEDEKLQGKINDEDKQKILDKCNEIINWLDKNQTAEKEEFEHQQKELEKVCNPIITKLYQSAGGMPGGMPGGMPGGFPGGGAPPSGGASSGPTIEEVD
Protocol: BIAcore 3000 system (Biacore AB) was used to evaluate the binding of P140 peptides to HSC70 protein (Page et al., 2009, and 2011). Sensor chip CMS, surfactant P20, amine coupling kit containing N-hydroxysuccinimide (NHS) and N-ethyl-N′-dimethylaminopropyl carbodiimide (EDC), 2-(2-pyridinyldithio)ethaneamine (PDEA) and ethanolamine were from Biacore AB. Biosensor assays were performed with HBS-EP buffer as running buffer (10 mM HEPES, 150 mM NaCl, 3 mM EDTA, 0.005% surfactant P20, pH 7.4). The compounds were diluted in the running buffer. The sensor chip surface was regenerated after each experiment by injecting 10 μL of 10 mM HCl. Recombinant bovine HSC70 (Stressgen) was immobilized on flow cells of a CMS sensor chip through its thiol groups using 35 μL PDEA in 50 mM borate buffer, pH 8.3 on the NHS/EDC-activated matrix. Then, 35 μL of HSC70 (100 μg/mL in formate buffer, pH 4.3) were injected until a response of 13,000 response units (RU) corresponding to 13 ng/mm^2 of HSC70 was immobilized. Twenty μL of a 50 mM cysteine/1 M NaCl solution was used to saturate unoccupied sites on the chip. The direct binding measurement of P140 peptides to HSC70 was carried out at 25° C. with a constant flow rate of 20 μL/min. P140 peptide and analogues were injected in the flux at different concentrations for 3 min, followed by a dissociation phase of 3 min. The kinetic parameters were calculated using the BIAeval 3.1 software on a personal computer. Analysis was performed using the simple 1:1 Langmuir binding model. The specific binding profiles were obtained after subtracting the response signal from the control empty channel and from blank-buffer injection. The fitting to each model was judged by the χ^2 value and randomness of residue distribution compared to the theoretical model.

[2] = Stability of the peptides at 37° C. in 10% (v/v) mannitol solution, HPLC peak area of intact peptide; assay type: physicochemical; details: for 95% of stability (predicted): time to 95% stability from linear equation; for Linear equation of stability (%) versus days: slope: y = stability %, x = days; for Stability (%): 10% mannitol
Protocol: The stability of the peptide SEQ ID NO: 2 in which the serine at position 10 is phosphorylated and the methionine at position 4 is oxidized (P140(MO)), and the peptide SEQ ID NO: 1 in which the serine at position 10 is phosphorylated (P140) was measured at 37° C., in a solution of 10% (v/v) mannitol. For each peptide, 3 concentrations have been tested: 200, 100 and 50 μg/mL.
At the indicated time, the integrity of P140 and P140(MO) peptides was measured in saline by high-performance liquid chromatography from the area of the peak corresponding to the intact peptide.
Stability is measured by using the HPLC peak surface.

MRL/lpr mice [3] = experiment: Proteinuria analysis in MRL/lpr mice (Albustix); assay type: in vivo, mouse; details: fresh urine, Albustix score over time (FIG. 3)
Protocol: as §1
Proteinuria of the above mice was measured in fresh urine using Albustix (Bayer Diagnostics) and was semi-quantitatively estimated according to a […] recommended by the manufacturer (no proteinuria=0; traces=1; 1+=2; 2+=3; 3+=4; 4+=5).

MRL/lpr mice [4] = experiment: Cellularity analysis (peripheral blood leucocytes) in MRL/lpr mice; assay type: in vivo, mouse; details: 100 μg/100 μL single injection, peripheral blood 5 days after, efficacy at least similar to P140
Protocol: MRL/lpr mice were injected with 100 μg/100 μL of P140 or P140(MO) and cellularity (peripheral blood) was studied 5 days after this unique injection. The count includes all the leucocytes. In view of the low number of tested mice, a non parametric statistical test has been realised Mann-Whitney).

CC[C@H](C)[C@H](NC(=O)[C@H](Cc1ccccc1)NC(=O)[C@H](C)NC(=O)[C@H](Cc1ccc(O)cc1)NC(=O)CNC(=O)[C@H](CCCNC(=N)N)NC(=O)[C@@H]1CCCN1C(=O)[C@H](CCCCN)NC(=O)CNC(=O)[C@H](COP(=O)(O)O)NC(=O)[C@H](CCCNC(=N)N)NC(=O)[C@H](CCCCN)NC(=O)[C@H](CO)NC(=O)[C@H](Cc1ccc(O)cc1)NC(=O)[C@@H](NC(=O)[C@H](CCSC)NC(=O)[C@H](Cc1c[nH]cn1)NC(=O)[C@@H](NC(=O)[C@@H](N)CCCNC(=N)N)[C@@H](C)CC)C(C)C)C(=O)N[C@@H](CCC(=O)O)C(=O)N[C@@H](Cc1ccc(O)cc1)C(=O)O [Compound P140] (H-RIHMVYSKR[pS]GKPRGYAFIEY-OH)
Median survival (MRL/lpr mice [1]): 29 weeks | Rmax (HSC70 protein; BIAcore): 83.3 RU | KA (HSC70 protein; BIAcore): 144000 M⁻¹ | Kd (HSC70 protein; BIAcore): 6.94 µM | kd (HSC70 protein; BIAcore): 0.00312 s⁻¹ | Req (HSC70 protein; peptide 1.56 μM): 15.3 RU | kobs (HSC70 protein; peptide 1.56 μM): 0.00382 s⁻¹ | Req (HSC70 protein; peptide 3.12 μM): 25.8 RU | kobs (HSC70 protein; peptide 3.12 μM): 0.00452 s⁻¹ | Req (HSC70 protein; peptide 6.25 μM): 39.5 RU | kobs (HSC70 protein; peptide 6.25 μM): 0.00593 s⁻¹ | Req (HSC70 protein; peptide 12.5 μM): 53.6 RU | kobs (HSC70 protein; peptide 12.5 μM): 0.00874 s⁻¹ | Req (HSC70 protein; peptide 25 μM): 65.2 RU | kobs (HSC70 protein; peptide 25 μM): 0.0144 s⁻¹ | 95% of stability (predicted) ([2]; 50 μg/mL, 37° C.): 1 months | Linear equation of stability (%) versus days: slope ([2]; 50 μg/mL, 37° C.): y = −0.099x + | Stability (%) ([2]; 50 μg/mL, day 0, 37° C.): 100% | Stability (%) ([2]; 50 μg/mL, day 20, 37° C.): 95.5% | Stability (%) ([2]; 50 μg/mL, day 40, 37° C.): 93.2% | Stability (%) ([2]; 50 μg/mL, day 60, 37° C.): 91.5% | Stability (%) ([2]; 50 μg/mL, day 80, 37° C.): 90.3% | Stability (%) ([2]; 50 μg/mL, day 100, 37° C.): 89.6% | 95% of stability (predicted) ([2]; 100 μg/mL, 37° C.): 2 months | Linear equation of stability (%) versus days: slope ([2]; 100 μg/mL, 37° C.): y = −0.0612x + | Stability (%) ([2]; 100 μg/mL, day 0, 37° C.): 100% | Stability (%) ([2]; 100 μg/mL, day 20, 37° C.): 97.5% | Stability (%) ([2]; 100 μg/mL, day 40, 37° C.): 96.2% | Stability (%) ([2]; 100 μg/mL, day 60, 37° C.): 95.5% | Stability (%) ([2]; 100 μg/mL, day 80, 37° C.): 94.5% | Stability (%) ([2]; 100 μg/mL, day 100, 37° C.): 93.4% | 95% of stability (predicted) ([2]; 200 μg/mL, 37° C.): 6 months | Linear equation of stability (%) versus days: slope ([2]; 200 μg/mL, 37° C.): y = −0.0238x + | Stability (%) ([2]; 200 μg/mL, day 0, 37° C.): 100% | Stability (%) ([2]; 200 μg/mL, day 20, 37° C.): 98.7% | Stability (%) ([2]; 200 μg/mL, day 40, 37° C.): 98.5% | Stability (%) ([2]; 200 μg/mL, day 60, 37° C.): 97.9% | Stability (%) ([2]; 200 μg/mL, day 80, 37° C.): 97.6% | Stability (%) ([2]; 200 μg/mL, day 100, 37° C.): 97.4%

CC[C@H](C)[C@H](NC(=O)[C@H](Cc1ccccc1)NC(=O)[C@H](C)NC(=O)[C@H](Cc1ccc(O)cc1)NC(=O)CNC(=O)[C@H](CCCNC(=N)N)NC(=O)[C@@H]1CCCN1C(=O)[C@H](CCCCN)NC(=O)CNC(=O)[C@H](COP(=O)(O)O)NC(=O)[C@H](CCCNC(=N)N)NC(=O)[C@H](CCCCN)NC(=O)[C@H](CO)NC(=O)[C@H](Cc1ccc(O)cc1)NC(=O)[C@@H](NC(=O)[C@H](CC[S+](C)[O-])NC(=O)[C@H](Cc1c[nH]cn1)NC(=O)[C@@H](NC(=O)[C@@H](N)CCCNC(=N)N)[C@@H](C)CC)C(C)C)C(=O)N[C@@H](CCC(=O)O)C(=O)N[C@@H](Cc1ccc(O)cc1)C(=O)O (some centres unmarked) [P140(MO), RIHM(O)VYSKRS(PO3H2)GKPRGYAFIEY] (H-RIH[Met(O)]VYSKR[pS]GKPRGYAFIEY-OH)
Median survival (MRL/lpr mice [1]): > 40 weeks | Affinity for HSC70 compared with P140 (non-oxidized counterpart) (HSC70 protein; BIAcore): not statistically different | Rmax (HSC70 protein; BIAcore): 39 RU | KA (HSC70 protein; BIAcore): 524000 M⁻¹ | Kd (HSC70 protein; BIAcore): 1.91 µM | kd (HSC70 protein; BIAcore): 0.0022 s⁻¹ | Req (HSC70 protein; peptide 1.56 μM): 17.6 RU | kobs (HSC70 protein; peptide 1.56 μM): 0.004 s⁻¹ | Req (HSC70 protein; peptide 3.12 μM): 24.2 RU | kobs (HSC70 protein; peptide 3.12 μM): 0.0058 s⁻¹ | Req (HSC70 protein; peptide 6.25 μM): 29.9 RU | kobs (HSC70 protein; peptide 6.25 μM): 0.0094 s⁻¹ | Req (HSC70 protein; peptide 12.5 μM): 33.9 RU | kobs (HSC70 protein; peptide 12.5 μM): 0.0166 s⁻¹ | Req (HSC70 protein; peptide 25 μM): 36.3 RU | kobs (HSC70 protein; peptide 25 μM): 0.031 s⁻¹ | 95% of stability (predicted) ([2]; 50 μg/mL, 37° C.): 2 years | Linear equation of stability (%) versus days: slope ([2]; 50 μg/mL, 37° C.): y = −0.0064x + | Stability (%) ([2]; 50 μg/mL, day 0, 37° C.): 100% | Stability (%) ([2]; 50 μg/mL, day 20, 37° C.): 100% | Stability (%) ([2]; 50 μg/mL, day 40, 37° C.): 100% | Stability (%) ([2]; 50 μg/mL, day 100, 37° C.): 99.4% | Linear equation of stability (%) versus days: slope ([2]; 100 μg/mL, 37° C.): y = −0.0064x + | Stability (%) ([2]; 100 μg/mL, day 0, 37° C.): 100% | Stability (%) ([2]; 100 μg/mL, day 20, 37° C.): 99.1% | Stability (%) ([2]; 100 μg/mL, day 40, 37° C.): 99.5% | Stability (%) ([2]; 100 μg/mL, day 100, 37° C.): 99.1% | 95% of stability (predicted) ([2]; 200 μg/mL, 37° C.): ∞ | Stability (%) ([2]; 200 μg/mL, day 0, 37° C.): 100% | Stability (%) ([2]; 200 μg/mL, day 20, 37° C.): 100% | Stability (%) ([2]; 200 μg/mL, day 40, 37° C.): 100% | Stability (%) ([2]; 200 μg/mL, day 100, 37° C.): 100% | Stability over 100 days (in words) ([2]; all tested concentrations (50 to 200 μg/ml), 37° C.): stable | Proteinuria compared to untreated mice (MRL/lpr mice [3]): less important and appears lately | Peripheral hypercellularity (MRL/lpr mice [4]): able to decrease peripheral hypercellularity

From patent US20150111835A1, “MODIFIED PEPTIDES AND THEIR USE FOR TREATING AUTOIMMUNE DISEASES” (CENTRE NATIONAL DE LA RECHERECHE SCIENTIFIQUE, priority 2011, published 2015)
